Laboratory results from PubChem BioAssay (NCI).
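Cultured in 96-well plates, cells were exposed to test compound for 48 hours across five concentrations. Definition used: TGI = concentration required for complete inhibition of growth.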

Legend:
Experiment in all cases: NCI-60 cell line screen, 48 h
SF-295 CNS = test system: SF-295 CNS
RXF 393 renal = test system: RXF 393 renal
ACHN renal = test system: ACHN renal
U251 CNS = test system: U251 CNS
TK-10 renal = test system: TK-10 renal
MCF7 breast = test system: MCF7 breast
OVCAR-8 ovarian = test system: OVCAR-8 ovarian
SW-620 colon = test system: SW-620 colon
MDA-N = test system: MDA-N
BT-549 breast = test system: BT-549 breast
SK-OV-3 ovarian = test system: SK-OV-3 ovarian
OVCAR-5 ovarian = test system: OVCAR-5 ovarian
HOP-92 NSCLC = test system: HOP-92 NSCLC
SN12C renal = test system: SN12C renal
MDA-MB-231 breast = test system: MDA-MB-231 breast
K-562 leukemia = test system: K-562 leukemia
HS 578T breast = test system: HS 578T breast
UACC-62 melanoma = test system: UACC-62 melanoma
NCI-H226 lung = test system: NCI-H226 lung
HCC-2998 colon = test system: HCC-2998 colon
HCT-15 colon = test system: HCT-15 colon
CCRF-CEM leukemia = test system: CCRF-CEM leukemia
MALME-3M melanoma = test system: MALME-3M melanoma
NCI-H23 lung = test system: NCI-H23 lung
LOX IMVI melanoma = test system: LOX IMVI melanoma
A549 NSCLC = test system: A549 NSCLC
NCI-H460 lung = test system: NCI-H460 lung
SR leukemia = test system: SR leukemia
NCI-H522 lung = test system: NCI-H522 lung
MOLT-4 leukemia = test system: MOLT-4 leukemia
A498 renal = test system: A498 renal
IGROV1 ovarian = test system: IGROV1 ovarian
SF-268 CNS = test system: SF-268 CNS
OVCAR-4 ovarian = test system: OVCAR-4 ovarian
EKVX NSCLC = test system: EKVX NSCLC
RPMI-8226 leukemia = test system: RPMI-8226 leukemia
KM12 colon = test system: KM12 colon
CAKI-1 renal = test system: CAKI-1 renal
SNB-19 CNS = test system: SNB-19 CNS
786-0 renal = test system: 786-0 renal
PC-3 prostate = test system: PC-3 prostate
DU-145 prostate = test system: DU-145 prostate
HOP-62 NSCLC = test system: HOP-62 NSCLC
SK-MEL-2 melanoma = test system: SK-MEL-2 melanoma
SK-MEL-5 melanoma = test system: SK-MEL-5 melanoma
COLO 205 colon = test system: COLO 205 colon
UACC-257 melanoma = test system: UACC-257 melanoma
HCT-116 colon = test system: HCT-116 colon
HT29 colon = test system: HT29 colon
M14 melanoma = test system: M14 melanoma
NCI/ADR-RES ovarian = test system: NCI/ADR-RES ovarian
HL-60(TB) leukemia = test system: HL-60(TB) leukemia
T-47D breast = test system: T-47D breast
UO-31 renal = test system: UO-31 renal
SK-MEL-28 melanoma = test system: SK-MEL-28 melanoma
SNB-75 CNS = test system: SNB-75 CNS
SF-539 CNS = test system: SF-539 CNS
OVCAR-3 ovarian = test system: OVCAR-3 ovarian
MDA-MB-435 = test system: MDA-MB-435
DMS 273 small cell lung = test system: DMS 273 small cell lung
LXFL 529 NSCLC = test system: LXFL 529 NSCLC
DLD-1 colon = test system: DLD-1 colon
DMS 114 small cell lung = test system: DMS 114 small cell lung
SNB-78 CNS = test system: SNB-78 CNS
KM20L2 colon = test system: KM20L2 colon
XF 498 CNS = test system: XF 498 CNS
HOP-18 NSCLC = test system: HOP-18 NSCLC
M19-MEL melanoma = test system: M19-MEL melanoma

Compound `O=[N+]([O-])c1cccc2nc3ccccc3c(NCCC[N+]3([O-])CCOCC3)c12` has a TGI (SF-295 CNS) of 1.38 µM, a TGI (RXF 393 renal) of 0.366 µM and a TGI (ACHN renal) of 3.81 µM. The TGI (U251 CNS) was 0.964 µM, the TGI (TK-10 renal) was 3.33 µM and the TGI (MCF7 breast) was 0.725 µM. For the same compound, the TGI (OVCAR-8 ovarian) was 3.44 µM, the TGI (SW-620 colon) was 1.6 µM and the TGI (MDA-N) was 0.277 µM. For the same compound, the TGI (BT-549 breast) was 1.4 µM, the TGI (SK-OV-3 ovarian) was 1.53 µM and the TGI (OVCAR-5 ovarian) was 1.5 µM. The TGI (HOP-92 NSCLC) was 0.29 µM, the TGI (SN12C renal) was 0.993 µM and the TGI (MDA-MB-231 breast) was 0.948 µM. For the same compound, the TGI (K-562 leukemia) was over 100 µM, the TGI (HS 578T breast) was over 100 µM and the TGI (UACC-62 melanoma) was 0.319 µM. It also gave a TGI (NCI-H226 lung) of 0.529 µM, a TGI (HCC-2998 colon) of 0.0393 µM and a TGI (HCT-15 colon) of 6.42 µM. For the same compound, the TGI (CCRF-CEM leukemia) was 0.583 µM, the TGI (MALME-3M melanoma) was 0.347 µM and the TGI (NCI-H23 lung) was 0.316 µM. It also gave a TGI (LOX IMVI melanoma) of 1.62 µM, a TGI (A549 NSCLC) of 0.871 µM and a TGI (NCI-H460 lung) of 0.462 µM. For the same compound, the TGI (SR leukemia) was over 40.8 µM, the TGI (NCI-H522 lung) was 0.462 µM and the TGI (MOLT-4 leukemia) was over 100 µM. For the same compound, the TGI (A498 renal) was 0.422 µM, the TGI (IGROV1 ovarian) was 0.608 µM and the TGI (SF-268 CNS) was 1.91 µM. For the same compound, the TGI (OVCAR-4 ovarian) was 0.455 µM, the TGI (EKVX NSCLC) was 2.01 µM and the TGI (RPMI-8226 leukemia) was 4.69 µM. For the same compound, the TGI (KM12 colon) was 0.538 µM, the TGI (CAKI-1 renal) was 12.1 µM and the TGI (SNB-19 CNS) was 2.8 µM. For the same compound, the TGI (786-0 renal) was 0.729 µM, the TGI (PC-3 prostate) was 2.22 µM and the TGI (DU-145 prostate) was 0.868 µM. The TGI (HOP-62 NSCLC) was 0.689 µM, the TGI (SK-MEL-2 melanoma) was 0.375 µM and the TGI (SK-MEL-5 melanoma) was 0.241 µM. It also gave a TGI (COLO 205 colon) of 0.24 µM, a TGI (UACC-257 melanoma) of 1.29 µM and a TGI (HCT-116 colon) of 0.533 µM. It also gave a TGI (HT29 colon) of 0.761 µM, a TGI (M14 melanoma) of 0.921 µM and a TGI (NCI/ADR-RES ovarian) of 39.2 µM. It also gave a TGI (HL-60(TB) leukemia) of 1.02 µM, a TGI (T-47D breast) of 0.919 µM and a TGI (UO-31 renal) of 4.59 µM. The TGI (SK-MEL-28 melanoma) was 0.984 µM, the TGI (SNB-75 CNS) was 0.683 µM and the TGI (SF-539 CNS) was 1.3 µM. The TGI (OVCAR-3 ovarian) was 0.474 µM and the TGI (MDA-MB-435) was 0.331 µM.

In the case of `CCCCOC(=O)NC(=O)c1cn(C2CCCCC2)c(=O)[nH]c1=O`, the TGI (SF-295 CNS) is reported as over 100 µM, the TGI (ACHN renal) is reported as 67.3 µM and the TGI (U251 CNS) is reported as 76.1 µM. It also gave a TGI (TK-10 renal) of over 100 µM, a TGI (DMS 273 small cell lung) of over 100 µM and a TGI (LXFL 529 NSCLC) of 93 µM. The TGI (OVCAR-8 ovarian) was over 100 µM, the TGI (SW-620 colon) was over 100 µM and the TGI (SK-OV-3 ovarian) was 41.4 µM. It also gave a TGI (OVCAR-5 ovarian) of over 100 µM, a TGI (HOP-92 NSCLC) of 55.1 µM and a TGI (SN12C renal) of over 100 µM. For the same compound, the TGI (K-562 leukemia) was over 100 µM, the TGI (UACC-62 melanoma) was over 100 µM and the TGI (NCI-H226 lung) was 46.3 µM. For the same compound, the TGI (HCC-2998 colon) was over 100 µM, the TGI (HCT-15 colon) was over 100 µM and the TGI (CCRF-CEM leukemia) was over 100 µM. The TGI (MALME-3M melanoma) was 80.4 µM, the TGI (DLD-1 colon) was over 100 µM and the TGI (NCI-H23 lung) was over 100 µM. The TGI (DMS 114 small cell lung) was over 100 µM, the TGI (LOX IMVI melanoma) was over 100 µM and the TGI (A549 NSCLC) was over 100 µM. The TGI (NCI-H460 lung) was over 100 µM, the TGI (NCI-H522 lung) was over 100 µM and the TGI (MOLT-4 leukemia) was over 100 µM. It also gave a TGI (A498 renal) of 49 µM, a TGI (IGROV1 ovarian) of over 100 µM and a TGI (SF-268 CNS) of over 100 µM. The TGI (OVCAR-4 ovarian) was 48.6 µM, the TGI (EKVX NSCLC) was over 100 µM and the TGI (SNB-78 CNS) was over 100 µM. It also gave a TGI (RPMI-8226 leukemia) of over 100 µM, a TGI (KM12 colon) of over 100 µM and a TGI (SNB-19 CNS) of 69.3 µM. For the same compound, the TGI (786-0 renal) was 40.1 µM, the TGI (HOP-62 NSCLC) was 65.9 µM and the TGI (SK-MEL-2 melanoma) was over 100 µM. The TGI (COLO 205 colon) was over 100 µM, the TGI (UACC-257 melanoma) was over 100 µM and the TGI (HCT-116 colon) was 50.1 µM. It also gave a TGI (HT29 colon) of over 100 µM, a TGI (KM20L2 colon) of over 100 µM and a TGI (M14 melanoma) of over 100 µM. It also gave a TGI (HL-60(TB) leukemia) of over 100 µM, a TGI (XF 498 CNS) of over 100 µM and a TGI (UO-31 renal) of 46.2 µM. The TGI (SK-MEL-28 melanoma) was over 100 µM, the TGI (HOP-18 NSCLC) was 49.4 µM and the TGI (M19-MEL melanoma) was over 100 µM. The TGI (SF-539 CNS) was 37.9 µM and the TGI (OVCAR-3 ovarian) was over 100 µM.

`COc1ccc(-c2cc(=O)c3ccccc3[nH]2)c(OC)c1` showed a TGI (SF-295 CNS) of over 100 µM, a TGI (RXF 393 renal) of over 100 µM and a TGI (ACHN renal) of over 100 µM. For the same compound, the TGI (U251 CNS) was over 100 µM, the TGI (TK-10 renal) was over 100 µM and the TGI (DMS 273 small cell lung) was over 100 µM. For the same compound, the TGI (LXFL 529 NSCLC) was over 100 µM, the TGI (OVCAR-8 ovarian) was over 100 µM and the TGI (SW-620 colon) was over 100 µM. It also gave a TGI (SK-OV-3 ovarian) of over 100 µM, a TGI (SN12C renal) of over 100 µM and a TGI (K-562 leukemia) of over 100 µM. It also gave a TGI (UACC-62 melanoma) of over 100 µM, a TGI (HCT-15 colon) of over 100 µM and a TGI (CCRF-CEM leukemia) of over 100 µM. For the same compound, the TGI (MALME-3M melanoma) was over 100 µM, the TGI (DLD-1 colon) was over 100 µM and the TGI (NCI-H23 lung) was over 100 µM. It also gave a TGI (DMS 114 small cell lung) of over 100 µM, a TGI (LOX IMVI melanoma) of over 100 µM and a TGI (A549 NSCLC) of over 100 µM. For the same compound, the TGI (NCI-H460 lung) was over 100 µM, the TGI (SR leukemia) was over 100 µM and the TGI (NCI-H522 lung) was over 100 µM. It also gave a TGI (MOLT-4 leukemia) of over 100 µM, a TGI (IGROV1 ovarian) of over 100 µM and a TGI (SF-268 CNS) of over 100 µM. The TGI (EKVX NSCLC) was over 100 µM, the TGI (SNB-78 CNS) was over 100 µM and the TGI (RPMI-8226 leukemia) was over 100 µM. For the same compound, the TGI (KM12 colon) was over 100 µM, the TGI (SNB-19 CNS) was over 100 µM and the TGI (786-0 renal) was over 100 µM. The TGI (HOP-62 NSCLC) was over 100 µM, the TGI (COLO 205 colon) was over 100 µM and the TGI (UACC-257 melanoma) was over 100 µM. The TGI (HCT-116 colon) was over 100 µM, the TGI (HT29 colon) was over 100 µM and the TGI (KM20L2 colon) was over 100 µM. The TGI (M14 melanoma) was over 100 µM, the TGI (HL-60(TB) leukemia) was over 100 µM and the TGI (UO-31 renal) was over 100 µM. For the same compound, the TGI (SK-MEL-28 melanoma) was over 100 µM, the TGI (M19-MEL melanoma) was over 100 µM and the TGI (SNB-75 CNS) was over 100 µM. It also gave a TGI (SF-539 CNS) of over 100 µM and a TGI (OVCAR-3 ovarian) of over 100 µM.
